Results taken from patent publication US20220289794A1, “SYNTHETIC ANTIMICROBIAL PEPTIDES” (priority 2019, published 2022).
In brackets after ≈: the same amount, converted by molar mass. Like-named read-outs stand apart in the source and are kept apart here.

Tests used:
[1] = system: Streptococcus pneumoniae ATCC 51938; assay: microbe, parasite or virus in culture; conditions: ATCC51938
[2] = system: Pseudomonas aeruginosa (PSA, ATCC 27883); assay: Synergy checkerboard assay (FIC index); type: cell-based; conditions: Pseudomonas aeruginosa (ATCC 27883), antibiotic alone
PSA = assay: microbe, parasite or virus in culture; conditions: Pseudomonas aeruginosa, ATCC27883, read-out: MIC Pseudomonas aeruginosa (ATCC 27883)
[3] = system: Escherichia coli (E. Coli, ATCC 25922); assay: microbe, parasite or virus in culture; conditions: ATCC25922, 24 h
[4] = system: Pseudomonas aeruginosa (PSA, ATCC 27883); assay: microbe, parasite or virus in culture; conditions: ATCC27883, 24 h
[5] = system: Enterococcus faecium ATCC 700221; assay: microbe, parasite or virus in culture; conditions: ATCC700221
[6] = system: Enterococcus faecalis ATCC 51575; assay: microbe, parasite or virus in culture; conditions: ATCC51575
[7] = system: Escherichia coli (ATCC 25922); assay: microbe, parasite or virus in culture; conditions: ATCC25922, read-out: E. coli (ATCC 25922) MIC
[8] = system: Escherichia coli (E. Coli, ATCC 25922); conditions: Escherichia coli (ATCC 25922); antibiotic alone
E. coli = assay: microbe, parasite or virus in culture; conditions: Escherichia coli, ATCC25922, read-out: MIC Escherichia coli (ATCC 25922)
MRSA = assay: microbe, parasite or virus in culture; conditions: Staphylococcus aureus
[9] = system: Pseudomonas aeruginosa (ATCC 27883); assay: microbe, parasite or virus in culture; conditions: ATCC27883, read-out: PSA (ATCC 27883 MIC)
[10] = system: Bacillus cereus (ATCC-13061); assay: microbe, parasite or virus in culture; conditions: ATCC13061
[11] = system: Staphylococcus aureus ATCC 29213; assay: microbe, parasite or virus in culture; conditions: ATCC29213
[12] = system: Bacillus subtilis (ATCC-6633); assay: microbe, parasite or virus in culture; conditions: ATCC6633
[13] = system: Streptococcus pneumoniae ATCC 49619; assay: microbe, parasite or virus in culture; conditions: ATCC49619
KPC = assay: microbe, parasite or virus in culture; conditions: Klebsiella pneumoniae, ATCCBAA1705, read-out: MIC Klebsiella pneumoniae (ATCC BAA-1705)
[14] = system: Enterococcus faecalis ATCC 29212; assay: microbe, parasite or virus in culture; conditions: ATCC29212
[15] = system: Enterococcus faecium ATCC 27270; assay: microbe, parasite or virus in culture; conditions: ATCC27270
[16] = system: Methicillin-resistant Staphylococcus aureus MRSA (ATCC BAA-1556); assay: microbe, parasite or virus in culture; conditions: ATCCBAA1556|MRSA, 24 h

## C[C@@H](O)[C@H]1C(=O)N2C(C(=O)O)=C(S[C@@H]3CN[C@H](C(=O)N(C)C)C3)[C@H](C)[C@H]12 [Meropenem]
[1]
  MIC: 0.25 µg/mL (≈ 0.652 µM)
[2]
  MIC of antibiotic: 1 µg/mL
[2]; Table 26
  MIC of antibiotic: 1 µg/mL
[2]; Table 27
  antibiotic MIC: 1 µg/mL
PSA
  MIC: 0.5 µg/mL (≈ 1.3 µM)
[3]; read-out: Escherichia coli (ATCC 25922) MIC, Table 29, [R6W4] (IFX-318), antibiotics alone and PHY-MIX (1:1 w/w)
  MIC: 1 µg/mL (≈ 2.61 µM)
[3]; read-out: Escherichia coli (ATCC 25922) MIC, Table 30, [R5W4K] (IFX-315), antibiotics alone and PHY-MIX (1:1 w/w)
  MIC: 1 µg/mL (≈ 2.61 µM)
[3]; read-out: Escherichia coli (ATCC 25922) MIC, Table 31, [R5W4] (IFX-301), antibiotics alone and PHY-MIX (1:1 w/w)
  MIC: 1 µg/mL (≈ 2.61 µM)
[3]; read-out: Escherichia coli (ATCC 25922) MIC, Table 32, meropenem, IFX-315, their conjugate and Phy-Mix 1:1
  MIC: 1 µg/mL (≈ 2.61 µM)
[4]; read-out: Pseudomonas aeruginosa (ATCC 27883) MIC, Table 28, IFX-031, antibiotics alone and PHY-MIX (1:1 w/w)
  MIC: 1 µg/mL (≈ 2.61 µM)
[4]; read-out: Pseudomonas aeruginosa (ATCC 27883) MIC, Table 29, [R6W4] (IFX-318), antibiotics alone and PHY-MIX (1:1 w/w)
  MIC: 1 µg/mL (≈ 2.61 µM)
[4]; read-out: Pseudomonas aeruginosa (ATCC 27883) MIC, Table 30, [R5W4K] (IFX-315), antibiotics alone and PHY-MIX (1:1 w/w)
  MIC: 1 µg/mL (≈ 2.61 µM)
[4]; read-out: Pseudomonas aeruginosa (ATCC 27883) MIC, Table 31, [R5W4] (IFX-301), antibiotics alone and PHY-MIX (1:1 w/w)
  MIC: 1 µg/mL (≈ 2.61 µM)
[4]; read-out: Pseudomonas aeruginosa (ATCC 27883) MIC, Table 32, meropenem, IFX-315, their conjugate and Phy-Mix 1:1
  MIC: 1 µg/mL (≈ 2.61 µM)
[5]
  MIC: 64 µg/mL (≈ 167 µM)
[6]
  MIC: 8 µg/mL (≈ 20.9 µM)
[7]
  MIC: 1 µg/mL (≈ 2.61 µM)
[8]
  MIC of antibiotic: 1 µg/mL
E. coli
  MIC: 0.125 µg/mL (≈ 0.326 µM)
MRSA; ATCCBAA1556 / MRSA, read-out: MIC MRSA (ATCC BAA-1556)
  MIC: 4 µg/mL (≈ 10.4 µM)
MRSA; MRSA
  MIC: 2 µg/mL (≈ 5.22 µM)
[9]
  MIC: 1 µg/mL (≈ 2.61 µM)
[10]
  MIC: 4 µg/mL (≈ 10.4 µM)
[11]
  MIC: 0.25 µg/mL (≈ 0.652 µM)
[12]
  MIC: 0.25 µg/mL (≈ 0.652 µM)
[13]
  MIC: 0.25 µg/mL (≈ 0.652 µM)
KPC
  MIC: 8 µg/mL (≈ 20.9 µM)
[14]
  MIC: 2 µg/mL (≈ 5.22 µM)
[15]
  MIC: 0.5 µg/mL (≈ 1.3 µM)
[16]; read-out: MRSA (ATCC BAA-1556) MIC, Table 29, [R6W4] (IFX-318), antibiotics alone and PHY-MIX (1:1 w/w)
  MIC: 2 µg/mL (≈ 5.22 µM)
[16]; read-out: MRSA (ATCC BAA-1556) MIC, Table 30, [R5W4K] (IFX-315), antibiotics alone and PHY-MIX (1:1 w/w)
  MIC: 2 µg/mL (≈ 5.22 µM)
[16]; read-out: MRSA (ATCC BAA-1556) MIC, Table 31, [R5W4] (IFX-301), antibiotics alone and PHY-MIX (1:1 w/w)
  MIC: 2 µg/mL (≈ 5.22 µM)
[16]; read-out: MRSA (ATCC BAA-1556) MIC, Table 32, meropenem, IFX-315, their conjugate and Phy-Mix 1:1
  MIC: 2 µg/mL (≈ 5.22 µM)
